Consider three molecules from paper PMC10788923 (Journal of Medicinal Chemistry, 2023).

Structures are written as SMILES.

Data set [1] in a line: Mouse liver microsome stability. As to conditions: 0.5 mg protein/mL, 37 °C. The class given is in vitro ADME. (Microsomes from liver hold many membrane-bound enzymes, among them those of drug oxidation.)
A short description of data set [2]: In vivo pharmacokinetic study, oral dosing. Also noted: species or system male C57BL/6J mice.
Where [3] appears, read: mouse, liver microsomes, read-out: MLM t1/2.
Where [4] appears, read: male, C57BL/6J, mouse plasma, PO 10 mg/kg, second number = SD.

On to `[O-][n+]1cccc(CCOc2ccc(Cl)c(C3CC3)c2)c1` [Compound 41, 3-(2-(4-Chloro-3-cyclopropylphenoxy)ethyl)pyridine 1-oxide], for which the half-life at 1 h, 1 µM in data set [1] (setting [3]) amounted to 7.2 min.

In the case of `O=c1cccc(CCOc2ccc(Cl)cc2)[nH]1` [Compound 60, 6-(2-(4-Chlorophenoxy)ethyl)pyridin-2-ol], the half-life at 1 h, 1 µM in data set [1] (setting [3]) was 11.7 min.

What is called Cmax is the maximum level reached in the sampled fluid or tissue. In general, Tmax refers to the time at which the peak concentration occurs. In the case of `[O-][n+]1cc(O)cc(CCCc2ccc(Cl)c(C(F)(F)F)c2)c1` [Compound 69, 3-(3-(4-Chloro-3-(trifluoromethyl)phenyl)propyl)-5-hydroxypyridine 1-oxide], the “MLM t1/2” value in data set [1] (mouse liver microsomes, 1 μM) turned out to be 104.7 min. The half-life at 1 μM in data set [1] (setting [3]) is 105 min. In data set [2] (male, C57BL/6J, plasma, mouse, oral dosing 10 mg/kg), this molecule displayed a half-life of 53 min. Besides, the concentration in data set [2] (male, C57BL/6J, mouse plasma, PO 10 mg/kg) peaked (Cmax at 24 h) at 0.31 µM. For the same molecule, in data set [2] (setting [4]), the time to peak (Tmax) at 24 h was found to be 25 min and the half-life at 24 h is 53.3 min. The MRT inf at 24 h in data set [2] (male, C57BL/6J, mouse plasma, PO 10 mg/kg, second number = SD, read-out: MRT0-inf) came out at 81 min. Moreover, the “oral bioavailability (in words)” value in data set [2] (mouse, oral dosing 10 mg/kg) is reported as “orally bioavailable”.
